This passage reports IC50 results from patent US11446287B2, “Compounds and methods for EP300 or CBP modulation and indications therefor” (Opna Immuno-Oncology SA, priority 2019, dated 2022).

SMILES strings stand for the structures.

T1 sequence (Q92793 1081-1197): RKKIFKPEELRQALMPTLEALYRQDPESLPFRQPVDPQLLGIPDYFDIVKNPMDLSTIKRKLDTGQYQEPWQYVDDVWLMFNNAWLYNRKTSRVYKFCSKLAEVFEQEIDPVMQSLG

This test addresses T1, Recombinant human CBP containing the bromodomain (CBP-BD (1043-1159)) (Homo sapiens, UniProt Q92793).
T1 construct: Recombinant human CBP bromodomain (CBP-BD (1043-1159)); made in house; host or cells: E. coli BL21-CodonPlus (DE3), modified pET vector
Put plainly: CBP Alphascreen binding assay. The following applies: read-out: CREBBP (CBP) IC50. The method in brief:
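Buffer: 50 mM HEPES pH 7.5, 50 mM NaCl, 0.01% BSA, 0.01% Triton X-100, 2 mM DTT. The signal was normalised to plate controls and fitted with a four-parameter curve to give IC50.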
On the technique in general: Alpha assays give light when donor and acceptor beads are brought close together.
As a reminder, the IC50 is the concentration that gives 50% inhibition. On to `Cc1noc(C)c1-c1cnc2c(c1)c(-c1ccc(C(=O)O)cc1)cn2[C@@H](C)c1ccccn1` [P-0001, (S)-4-(5-(3,5-dimethylisoxazol-4-yl)-1-(1-(pyridin-2-yl)ethyl)-1H-pyrrolo[2,3-b]pyridin-3-yl)benzoic acid], for which the IC50 is 0.0001 to 1 µM. Take `Cc1noc(C)c1-c1cnc2c(c1)c(-c1ccc(C(=O)O)cc1)cn2C(c1ccccn1)C1CCCC1` (stereo not drawn) [P-0002, 4-(1-(cyclopentyl(pyridin-2-yl)methyl)-5-(3,5-dimethylisoxazol-4-yl)-1H-pyrrolo[2,3-b]pyridin-3-yl)benzoic acid]: the IC50 fell in the range of 0.0001 to 1 µM. Consider `Cc1noc(C)c1-c1cnc2c(c1)c(-c1ccccc1)cn2C(c1ccccn1)C1CCCC1` (stereo not drawn) [P-0003, 4-(1-(cyclopentyl(pyridin-2-yl)methyl)-3-phenyl-1H-pyrrolo[2,3-b]pyridin-5-yl)-3,5-dimethylisoxazole], for which the IC50 lay in the range of 8 to 1000 µM.

Turning to `Cc1noc(C)c1-c1cnc2c(c1)c(-c1ccc(C(=O)O)cc1)cn2C(c1ccccn1)C1CCCCC1` (stereo not drawn) [P-0004, 4-(1-(cyclohexyl(pyridin-2-yl)methyl)-5-(3,5-dimethylisoxazol-4-yl)-1H-pyrrolo[2,3-b]pyridin-3-yl)benzoic acid], the IC50 lay in the range of 0.0001 to 1 µM.

On to `COC(=O)c1ccc(-c2cn(S(=O)(=O)c3ccc(C)cc3)c3ncc(-c4c(C)noc4C)cc23)cc1` [P-0005, methyl 4-(5-(3,5-dimethylisoxazol-4-yl)-1-tosyl-1H-pyrrolo[2,3-b]pyridin-3-yl)benzoate], for which the IC50 lay within 8 to 1000 µM. Take `Cc1noc(C)c1-c1cnc2c(c1)c(-c1ccnc(C(=O)O)c1)cn2S(=O)(=O)c1ccccc1` [P-0055, 4-(5-(3,5-dimethylisoxazol-4-yl)-1-(phenylsulfonyl)-1H-pyrrolo[2,3-b]pyridin-3-yl)picolinic acid]: the IC50 lay within 0.0001 to 1 µM. For `COc1cccc(Cn2cc(-c3cccc(C(=O)O)c3)c3cc(-c4c(C)noc4C)cnc32)c1` [P-0056, 3-(5-(3,5-dimethylisoxazol-4-yl)-1-(3-methoxybenzyl)-1H-pyrrolo[2,3-]pyridin-3-yl)benzoic acid], the IC50 lay in the range of 0.0001 to 1 µM. With `COc1cccc(Cn2cc(-c3ccnc(C(=O)O)c3)c3cc(-c4c(C)noc4C)cnc32)c1` [P-0057, 4-(5-(3,5-dimethylisoxazol-4-yl)-1-(3-methoxybenzyl)-1H-pyrrolo[2,3-b]pyridin-3-yl)picolinic acid], the IC50 was in the range of 0.0001 to 1 µM.

With `Cc1noc(C)c1-c1cnc2c(c1)c(-c1cccc(C(=O)O)c1)cn2C(C1CC1)C1CC1` [P-0058, 3-(1-(dicyclopropylmethyl)-5-(3,5-dimethylisoxazol-4-yl)-1H-pyrrolo[2,3-b]pyridin-3-yl)benzoic acid], the IC50 was 0.0001 to 1 µM.

On to `Cc1noc(C)c1-c1cnc2c(c1)c(-c1cccc(C(=O)O)c1)cn2Cc1cccc(OC(F)(F)F)c1` [P-0059, 3-(5-(3,5-dimethylisoxazol-4-yl)-1-(3-(trifluoromethoxy)benzyl)-1H-pyrrolo[2,3-b]pyridin-3-yl)benzoic acid], for which the IC50 is 0.0001 to 1 µM.

For `Cc1noc(C)c1-c1cnc2c(c1)c(-c1cccc(C(=O)O)c1)cn2Cc1cccc(F)c1` [P-0060, 3-(5-(3,5-dimethylisoxazol-4-yl)-1-(3-fluorobenzyl)-1H-pyrrolo[2,3-b]pyridin-3-yl)benzoic acid], the IC50 fell in the range of 0.0001 to 1 µM. Turning to `Cc1noc(C)c1-c1cnc2c(c1)c(-c1cccc(C(=O)O)c1)cn2Cc1cccc(Cl)c1` [P-0061, 3-(1-(3-chlorobenzyl)-5-(3,5-dimethylisoxazol-4-yl)-1H-pyrrolo[2,3-b]pyridin-3-yl)benzoic acid], the IC50 fell in the range of 0.0001 to 1 µM.

Take `Cc1cccc(Cn2cc(-c3cccc(C(=O)O)c3)c3cc(-c4c(C)noc4C)cnc32)c1` [P-0062, 3-(5-(3,5-dimethylisoxazol-4-yl)-1-(3-methylbenzyl)-1H-pyrrolo[2,3-b]pyridin-3-yl)benzoic acid]: the IC50 fell in the range of 0.0001 to 1 µM. For the compound `Cc1noc(C)c1-c1cnc2c(c1)c(-c1cccc(C(=O)O)c1)cn2Cc1cccc(C(F)(F)F)c1` [P-0063, 3-(5-(3,5-dimethylisoxazol-4-yl)-1-(3-(trifluoromethyl)benzyl)-1H-pyrrolo[2,3-b]pyridin-3-yl)benzoic acid], the IC50 lay within 0.0001 to 1 µM.

For the compound `Cc1noc(C)c1-c1cnc2c(CC3CCC3)cn(-c3ccc(C(=O)O)cc3OC(F)F)c2c1` [P-0064, 4-(3-(cyclobutylmethyl)-6-(3,5-dimethylisoxazol-4-yl)-1H-pyrrolo[3,2-b]pyridin-1-yl)-3-(difluoromethoxy)benzoic acid], the IC50 fell in the range of 0.0001 to 1 µM. Consider `Cc1noc(C)c1-c1cnc2c(CC3CC3)cn(-c3ccnc(C(=O)O)c3)c2c1` [P-0065, 4-(3-(cyclopropylmethyl)-6-(3,5-dimethylisoxazol-4-yl)-1H-pyrrolo[3,2-b]pyridin-1-yl)picolinic acid], for which the IC50 lay in the range of 0.0001 to 1 µM. `Cc1noc(C)c1-c1cnc2c(CC3CCC3)cn(-c3ccc(C(=O)O)cc3OC(F)(F)F)c2c1` [P-0066, 4-(3-(cyclobutylmethyl)-6-(3,5-dimethylisoxazol-4-yl)-1H-pyrrolo[3,2-b]pyridin-1-yl)-3-(trifluoromethoxy)benzoic acid]: the IC50 fell in the range of 0.0001 to 1 µM. For `COc1cc(C(=O)O)cc(OC)c1-n1cc(CC2CCC2)c2ncc(-c3c(C)noc3C)cc21` [P-0067, 4-(3-(cyclobutylmethyl)-6-(3,5-dimethylisoxazol-4-yl)-1H-pyrrolo[3,2-b]pyridin-1-yl)-3,5-dimethoxybenzoic acid], the IC50 lay within 0.0001 to 1 µM. Take `Cc1noc(C)c1-c1cnc2c(CC3CCC3)cn(-c3ccc(S(C)(=O)=O)c(F)c3)c2c1` [P-0068, 4-(3-(cyclobutylmethyl)-1-(3-fluoro-4-(methylsulfonyl)phenyl)-1H-pyrrolo[3,2-b]pyridin-6-yl)-3,5-dimethylisoxazole]: the IC50 was in the range of 0.0001 to 1 µM. As for `Cc1noc(C)c1-c1cnc2c(c1)c(C#CC(=O)O)cn2Cc1ccccc1` [P-0069, 3-(1-benzyl-5-(3,5-dimethylisoxazol-4-yl)-1H-pyrrolo[2,3-b]pyridin-3-yl)propiolic acid], the IC50 is 0.0001 to 1 µM. As for `Cc1noc(C)c1-c1cnc2c(c1)c(-c1ccc(C(=O)O)cc1OC(F)(F)F)cn2[C@@H](C)c1ccccn1` [P-0070, (S)-4-(5-(3,5-dimethylisoxazol-4-yl)-1-(1-(pyridin-2-yl)ethyl)-1H-pyrrolo[2,3-b]pyridin-3-yl)-3-(trifluoromethoxy)benzoic acid], the figure is 0.0001 to 1 µM; as for `Cc1noc(C)c1-c1cnc2c(c1)c(-c1ccc(C(=O)O)cc1OC(F)F)cn2[C@@H](C)c1ccccn1` [P-0071, (S)-3-(difluoromethoxy)-4-(5-(3,5-dimethylisoxazol-4-yl)-1-(1-(pyridin-2-yl)ethyl)-1H-pyrrolo[2,3-b]pyridin-3-yl)benzoic acid], 0.0001 to 1 µM. As for `Cc1noc(C)c1-c1cnc2c(c1)c(-c1cccc(C(=O)O)c1)cn2C(C1CCC1)C1CCC1` [P-0072, 3-(1-(dicyclobutylmethyl)-5-(3,5-dimethylisoxazol-4-yl)-1H-pyrrolo[2,3-b]pyridin-3-yl)benzoic acid], the IC50 lay within 0.0001 to 1 µM. Turning to `Cc1noc(C)c1-c1cnc2c(c1)c(-c1cccc(C(=O)O)c1)cn2C(c1ccccn1)C1CCC1` (stereo not drawn) [P-0073, 3-(1-(cyclobutyl(pyridin-2-yl)methyl)-5-(3,5-dimethylisoxazol-4-yl)-1H-pyrrolo[2,3-b]pyridin-3-yl)benzoic acid], the IC50 lay in the range of 0.0001 to 1 µM.

On to `Cc1noc(C)c1-c1cnc2c(CC3CCC3)cn(-c3c(Cl)cc(C(=O)O)cc3Cl)c2c1` [P-0074, 3,5-dichloro-4-(3-(cyclobutylmethyl)-6-(3,5-dimethylisoxazol-4-yl)-1H-pyrrolo[3,2-b]pyridin-1-yl)benzoic acid], for which the IC50 is 0.0001 to 1 µM. Consider `Cc1cc(C(=O)O)cnc1-n1cc(CC2CCC2)c2ncc(-c3c(C)noc3C)cc21` [P-0075, 6-(3-(cyclobutylmethyl)-6-(3,5-dimethylisoxazol-4-yl)-1H-pyrrolo[3,2-b]pyridin-1-yl)-5-methylnicotinic acid], for which the IC50 is 0.0001 to 1 µM. With `Cc1noc(C)c1-c1cnc2c(CC3CCC3)cn(-c3ccc(C#N)cc3)c2c1` [P-0076, 4-(3-(cyclobutylmethyl)-6-(3,5-dimethylisoxazol-4-yl)-1H-pyrrolo[3,2-b]pyridin-1-yl)benzonitrile], the IC50 is 1 to 8 µM.

Consider `Cc1noc(C)c1-c1cnc2c(CC3CCC3)cn(-c3ccnc(C#N)c3)c2c1` [P-0077, 4-(3-(cyclobutylmethyl)-6-(3,5-dimethylisoxazol-4-yl)-1H-pyrrolo[3,2-b]pyridin-1-yl)picolinonitrile], for which the IC50 was in the range of 0.0001 to 1 µM. As for `Cc1noc(C)c1-c1cnc2c(c1)c(-c1cccc(C(=O)NC#N)c1)cn2Cc1ccccc1` [P-0078, 3-(1-benzyl-5-(3,5-dimethylisoxazol-4-yl)-1H-pyrrolo[2,3-b]pyridin-3-yl)-N-cyanobenzamide], the IC50 fell in the range of 1 to 8 µM. Regarding `Cc1noc(C)c1-c1cnc2c(c1)c(-c1cccc(C(=O)NO)c1)cn2Cc1ccccc1` [P-0079, 3-(1-benzyl-5-(3,5-dimethylisoxazol-4-yl)-1H-pyrrolo[2,3-b]pyridin-3-yl)-N-hydroxybenzamide], the IC50 fell in the range of 0.0001 to 1 µM. For `Cc1noc(C)c1-c1cnc2c(c1)c(-c1ccc(C(=O)O)cc1)cn2C(C)c1ccccn1` (stereo not drawn) [P-0080, 4-(5-(3,5-dimethylisoxazol-4-yl)-1-(1-(pyridin-2-yl)ethyl)-1H-pyrrolo[2,3-b]pyridin-3-yl)benzoic acid], the IC50 was 1 to 8 µM.

On to `Cc1noc(C)c1-c1cnc2c(c1)c(-c1cccc(S(N)(=O)=O)c1)cn2Cc1ccccc1` [P-0081, 3-(1-benzyl-5-(3,5-dimethylisoxazol-4-yl)-1H-pyrrolo[2,3-b]pyridin-3-yl)benzenesulfonamide], for which the IC50 was in the range of 1 to 8 µM.

Regarding `CNS(=O)(=O)c1cccc(-c2cn(Cc3ccccc3)c3ncc(-c4c(C)noc4C)cc23)c1` [P-0082, 3-(1-benzyl-5-(3,5-dimethylisoxazol-4-yl)-1H-pyrrolo[2,3-b]pyridin-3-yl)-N-methylbenzenesulfonamide], the IC50 is 8 to 1000 µM.
